According to publication PMC7008598 (Science signaling, 2019):

Columns and labels:
[1] = biological target: T1, human TNFR1 ECD (Homo sapiens, UniProt P19438); assay: SPR binding assay on immobilized TNFR1 ECD
T1 sequence (P19438 30-211 limits assumed): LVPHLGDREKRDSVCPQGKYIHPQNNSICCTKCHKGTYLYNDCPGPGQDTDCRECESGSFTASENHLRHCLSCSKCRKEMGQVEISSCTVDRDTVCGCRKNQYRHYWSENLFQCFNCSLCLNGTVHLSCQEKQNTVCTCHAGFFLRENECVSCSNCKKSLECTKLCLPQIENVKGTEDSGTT

[2] = tested on: TNFR1-stimulated NF-κB activation; assay: LTα-induced NF-κB activation luciferase assay in HEK293 cells; assay type: cell-based, human
[3] = biological target: T2, TNFR1 PLAD dimer (Homo sapiens, UniProt P19438); assay: Native gel characterization of soluble TNFR1 PLAD dimer; conditions: compounds 200 μM
T2 sequence (P19438 30-82): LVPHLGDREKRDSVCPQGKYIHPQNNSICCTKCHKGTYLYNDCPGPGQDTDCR

[4] = tested on: TRADD-induced NF-κB activation; assay: TRADD-induced NF-κB activation in HEK293 cells; assay type: cell-based, human; conditions: HEK293, TRADD overexpression, 0.1 to 200 μM
[5] = tested on: basal NF-κB activation in TNFR1 KO HAP1 cells; assay: Basal NF-κB activation in TNFR1 KO HAP1 cells; assay type: cell-based, human
[6] = biological target: T3, TNFR1 ECD dimer (Homo sapiens, UniProt P19438); assay: Native gel characterization of soluble TNFR1 ECD dimer; assay type: biochemical; conditions: compounds 200 μM
T3 sequence (P19438 30-211 limits assumed): T1 sequence (P19438 30-211 limits assumed)

[7] = tested on: TNFR1-stimulated NF-κB activation; conditions: read-out: absolute IC50, inhibition of ligand-induced NF-κB activation; cited from earlier work
[8] = biological target: T4, recombinant human TNFR1 extracellular domain (human, UniProt P19438 30-211); assay: SPR
T4 sequence (looked up): T1 sequence (P19438 30-211 limits assumed)

[9] = biological target: T5, soluble FLAG-tagged lymphotoxin-α (LTα), P01374; assay: native gel or EMSA; conditions: remark: other sources report otherwise
T5 chain: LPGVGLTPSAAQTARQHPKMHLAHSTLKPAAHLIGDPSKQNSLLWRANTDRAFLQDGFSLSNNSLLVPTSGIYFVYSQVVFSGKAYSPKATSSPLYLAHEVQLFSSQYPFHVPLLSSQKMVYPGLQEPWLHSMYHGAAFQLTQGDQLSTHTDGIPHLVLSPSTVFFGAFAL

[10] = biological target: the molecule itself; assay: native gel or EMSA

For `COc1cc(C(=O)NS(=O)(=O)c2ccccc2C)ccc1Cc1cn(C)c2ccc(NC(=O)OC3CCCC3)cc12` [zafirlukast], which Kd [1] is on record?
The Kd was 86 µM.

What about the “noncompetitive binding of LTα and compound to TNFR1 ECD” value ([1]; SPR, LTα 50 nM, compound 200 μM) of the same molecule?
Its value is “equal to the sum of the individual response”.

And the “LTα binding affinity to TNFR1 ECD in the presence of compound” value ([1]; SPR, compound at saturating 200 μM)?
The value was “essentially unchanged”.

And the “competition with H398 for binding TNFR1” value ([1]; SPR, compounds 200 μM, H398 at 1.0 nM)?
The value was “did not compete with H398”.

And the “extent of inhibition of NF-κB activation” value ([2]; HEK293, LTα, maximal inhibition)?
Its value is 55%.

And the “IC50 for inhibition of NF-κB in the presence of H398” value ([2]; presence of H398 antibody)?
The value was “unchanged”.

What about the “disruption of soluble PLAD dimers” value [3] of the same molecule?
Its value is “disrupted”.

What about the “effect on TRADD-induced NF-κB activation” value [4] of the same molecule?
The value was “little effect”.

And the “effect on basal level of NF-κB activation in TNFR1 KO cells (specificity)” value [5]?
The value was “almost no effect on basal activity”.

And the “disruption of TNFR1 ECD dimer” value [6]?
The value was “disrupted”.

What about the IC50 [7] of the same molecule?
The IC50 was 50 µM.

B1: soluble FLAG-tagged lymphotoxin-α (LTα) (ligand, UniProt P01374 35-205, looked up)
chain: T5 chain
Which results are given for B1?
Kd [8]: 0.037 µM; stoichiometry N [9]: 3

B2: FLAG-tagged TNFR1 PLAD (residues 30 to 82) (domain or fragment, UniProt P19438 30-82, looked up)
chain: T2 sequence (P19438 30-82)
Which “stoichiometry N” value [10] does the source give for B2 here?
The value was 2.
